The values that follow come from ChEMBL document CHEMBL1201862, “PubChem BioAssay data set” (2004).

Some test systems named below: 786-0; K562; COLO 205; A498; RXF 393; Malme-3M; SK-MEL-2; UACC-62; OVCAR-4; ACHN; NCI-H23; HOP-62; UACC-257; KM12; EKVX; M14; HL-60.
Common to all, as to experiment: NCI-60 cell line screen, 48 h

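In this assay, cells in 96-well plates receive the compound at five concentrations for 48 hours. Endpoints are linearly interpolated between the surrounding concentrations. At the GI50, growth is halved.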 Activity calls are given as the source filed them. Rule as the data show it: active = GI50 up to about 1.1 µM and inactive = higher. A value given as a limit tells only on which side of the number the result lay.

Regarding `Cc1ccc(/N=C2\N=C(N3CC(C)OC(C)C3)c3ccccc32)cc1` (stereo not drawn), the GI50 with 786-0 is 34.4 µM (inactive); in the test on K562, 34 µM (inactive); in the test with COLO 205, 40.3 µM (inactive); with A498, 26.6 µM (inactive); in the test with RXF 393, 12.6 µM (inactive); in the test with Malme-3M, 31.2 µM (inactive). Further, the GI50 in the test with SK-MEL-2 was 24.4 µM (inactive); with UACC-62, 29.6 µM (inactive); in the test with OVCAR-4, 18.1 µM (inactive); in the test with ACHN, 28.6 µM (inactive); in the test on NCI-H23, 28.5 µM (inactive); with HOP-62 it was 37.9 µM (inactive). In addition, the GI50 is 22.7 µM (inactive) in the test on UACC-257, 22 µM (inactive) with KM12, 32.6 µM (inactive) in the test on EKVX and 19.3 µM (inactive) with M14.

Take `O=C1C2CC=CCC2C(=O)C12CCc1ccccc12` (stereo not drawn): the GI50 with 786-0 is > 100 µM (inactive); in the test on K562, > 100 µM (inactive); in the test with COLO 205 it was > 100 µM (inactive); in the test with RXF 393 it was > 100 µM (inactive); in the test on Malme-3M, > 100 µM (inactive); in the test with HL-60, 74.6 µM (inactive). For the same compound, the GI50 in the test on UACC-62, with OVCAR-4, with ACHN, with NCI-H23, in the test on HOP-62 and in the test with EKVX was > 100 µM (inactive) each time. Besides, the GI50 with M14 was > 100 µM (inactive).

On to `CCOC(=O)C(CCC(N)=O)(CCC(=O)OC)C(=O)OCC`, for which the GI50 in the test on 786-0, in the test on K562, with COLO 205, with A498, in the test on RXF 393 and with Malme-3M was > 100 µM (inactive) each time. For the same compound, the GI50 in the test on HL-60, in the test on UACC-62, in the test with OVCAR-4, with ACHN, in the test with NCI-H23 and with HOP-62 was > 100 µM (inactive) throughout. Also, the GI50 in the test with UACC-257, in the test on KM12, with EKVX and with M14 was > 100 µM (inactive) in each case.

With `CCOC(=O)NC(=O)c1cn(CCN2CCN(C(=O)CNC(=O)CNC(=O)Cn3cc(C(=O)NC(=O)OCC)c(=O)[nH]c3=O)CC2)c(=O)[nH]c1=O`, the GI50 in the test on 786-0, in the test with K562, with COLO 205, in the test with A498, in the test with Malme-3M and with HL-60 was > 100 µM (inactive) each time. Further, the GI50 in the test with SK-MEL-2, with UACC-62, with ACHN, with NCI-H23, in the test on HOP-62 and in the test on UACC-257 was > 100 µM (inactive) each time. The GI50 in the test with KM12 and in the test with M14 was > 100 µM (inactive) in each case.

As to `COc1ccc(C(Cl)=C(c2ccc(OCCN(C)C)cc2)c2ccc(OCCN(C)C)cc2)cc1`, the GI50 is 1.27 µM (inactive) with 786-0; 1.37 µM (inactive) in the test with K562; 1.39 µM (inactive) with COLO 205; 1.13 µM (inactive) with RXF 393; 1.81 µM (inactive) with Malme-3M; 1.83 µM (inactive) in the test on HL-60. Besides, the GI50 in the test with SK-MEL-2 is 1.68 µM (inactive); in the test with UACC-62 it was 1.7 µM (inactive); in the test on OVCAR-4 it was 2.49 µM (inactive); in the test on ACHN, 1.82 µM (inactive); in the test on NCI-H23, 1.73 µM (inactive); in the test on HOP-62, 3.14 µM (inactive). Further, the GI50 was 1.37 µM (inactive) in the test with KM12, 5.11 µM (inactive) with EKVX and 1.5 µM (inactive) in the test on M14.

`COc1cc(C[P+](c2ccccc2)(c2ccccc2)c2ccccc2)cc(OC)c1OC`: the GI50 in the test with 786-0, with K562, in the test on COLO 205, with RXF 393, in the test with Malme-3M and with HL-60 was > 100 µM (inactive) each time. Also, the GI50 in the test on SK-MEL-2, with UACC-62, with OVCAR-4, in the test on ACHN, in the test with NCI-H23 and in the test on HOP-62 was > 100 µM (inactive) in each case. The GI50 in the test on UACC-257, in the test on KM12, with EKVX and in the test with M14 was > 100 µM (inactive) each time.

On to `O=C(Cc1nc2ccccc2s1)NC12CC3CC(CC(C3)C1)C2`, for which the GI50 with 786-0, in the test on K562, with A498, in the test with Malme-3M, with HL-60 and in the test on SK-MEL-2 was > 100 µM (inactive) each time. Further, the GI50 in the test on UACC-62, in the test on OVCAR-4, with ACHN, with NCI-H23, in the test with HOP-62 and with UACC-257 was > 100 µM (inactive) throughout. The GI50 in the test with KM12, in the test on EKVX and with M14 was > 100 µM (inactive) throughout.

Turning to `COc1cccc(C(=O)N2CCc3ccccc32)c1OC`, the GI50 in the test on 786-0 is > 100 µM (inactive); in the test on K562 it was 34.7 µM (inactive); in the test with COLO 205, 58.7 µM (inactive); in the test with RXF 393 it was 63.1 µM (inactive); in the test with Malme-3M, 60.4 µM (inactive); in the test with HL-60, 27.8 µM (inactive). Besides, the GI50 with SK-MEL-2 was > 100 µM (inactive); with UACC-62, 47 µM (inactive); in the test with OVCAR-4, 48.9 µM (inactive); in the test with ACHN, 64.9 µM (inactive); in the test with NCI-H23, 34.4 µM (inactive); with HOP-62, > 100 µM (inactive). Further, the GI50 with UACC-257 is 53.1 µM (inactive); in the test on KM12 it was 34.7 µM (inactive); in the test with EKVX, > 100 µM (inactive); in the test on M14, 43.6 µM (inactive).

Turning to `COc1ccc(CNc2cnc3ccc(N)cc3n2)cc1`, the GI50 was > 100 µM (inactive) in the test on 786-0; > 100 µM (inactive) with K562; 0.064 µM (active) with COLO 205; > 100 µM (inactive) in the test on Malme-3M; > 100 µM (inactive) in the test on HL-60; > 100 µM (inactive) in the test with SK-MEL-2. Besides, the GI50 in the test with OVCAR-4, in the test with ACHN, with NCI-H23, in the test on HOP-62, in the test on UACC-257 and in the test on KM12 was > 100 µM (inactive) in each case. In addition, the GI50 in the test with EKVX and in the test with M14 was > 100 µM (inactive) throughout.

Regarding `OCC(O)C(O)C(O)c1nn(-c2ccc(F)cc2)c2nc3cc(Cl)c(Cl)cc3nc12` (stereo not drawn), the GI50 in the test with 786-0 was 17.3 µM (inactive); in the test with K562, 17.6 µM (inactive); in the test on COLO 205 it was 69 µM (inactive); in the test on RXF 393, 15.6 µM (inactive); with Malme-3M, 9.51 µM (inactive); with HL-60, > 100 µM (inactive). In addition, the GI50 in the test with SK-MEL-2 was 17.3 µM (inactive); in the test on UACC-62, 16.9 µM (inactive); in the test on OVCAR-4 it was 6.21 µM (inactive); in the test on ACHN it was > 10 µM (inactive); in the test with NCI-H23, 18.5 µM (inactive); with HOP-62, 12.7 µM (inactive). The GI50 in the test on UACC-257 is 21.4 µM (inactive); with KM12, 23.3 µM (inactive); in the test on EKVX, 18.9 µM (inactive); with M14, 18.2 µM (inactive).

With `COc1ccc2c(c1)C(=O)N1CCOC1C2C(=O)O` (stereo not drawn), the GI50 with 786-0, with K562, in the test with A498, in the test with HL-60, in the test with UACC-62 and with OVCAR-4 was > 100 µM (inactive) each time. Moreover, the GI50 in the test on ACHN, in the test on NCI-H23, in the test with HOP-62, in the test on UACC-257, in the test on KM12 and in the test with EKVX was > 100 µM (inactive) throughout. Further, the GI50 in the test on M14 was > 100 µM (inactive).

As for `CCCCCCCCCCCCSC(=S)c1c(C)[nH]n(-c2ccccc2)c1=O`, the GI50 in the test with 786-0 was 15.6 µM (inactive); in the test with K562 it was 6.61 µM (inactive); in the test with COLO 205 it was 15.3 µM (inactive); with A498, 26.7 µM (inactive); with RXF 393, 10.3 µM (inactive); in the test with Malme-3M it was 10.7 µM (inactive). For the same compound, the GI50 is 8.59 µM (inactive) in the test on HL-60; 3.52 µM (inactive) in the test with UACC-62; 8.36 µM (inactive) with OVCAR-4; 16.9 µM (inactive) in the test on ACHN; 13.3 µM (inactive) in the test on NCI-H23; 5.16 µM (inactive) in the test with HOP-62. Further, the GI50 in the test with UACC-257 was 8.04 µM (inactive); with EKVX it was 19.1 µM (inactive); in the test with M14, 13.4 µM (inactive).

On to `O=C1C=CC2(CCCCCCC2=O)CC1` (stereo not drawn), for which the GI50 is > 100 µM (inactive) in the test on 786-0; 57 µM (inactive) in the test with COLO 205; > 100 µM (inactive) in the test with A498; > 100 µM (inactive) with RXF 393; > 100 µM (inactive) in the test with Malme-3M; > 100 µM (inactive) in the test on HL-60. Moreover, the GI50 in the test with UACC-62, with OVCAR-4, in the test on ACHN, in the test on HOP-62, in the test with UACC-257 and in the test with KM12 was > 100 µM (inactive) in each case. The GI50 with EKVX and in the test with M14 was > 100 µM (inactive) throughout.
